Like-named read-outs stand apart in the source and are kept apart here.
Experiments:
[1] = test system: HCV sub-genomic replicon, GS4.3; experiment: Quantitation by ELISA of NPTII in the HCV sub-genomic replicon, GS4.3, Section B; type: cell-based; settings: Hepatitis C virus, read-out: Replicon EC50
Source text: Quantitation by ELISA of the Selectable Marker Protein, Neomycin Phosphotransferase II (NPTII) in the HCV Sub-Genomic Replicon, GS4.3
The HCV sub-genomic replicon (1377/NS3-3′, accession No. AJ242652), stably maintained in HuH-7 hepatoma cells, was created by Lohmann et al. Science 285: 110-113 (1999). The replicon-containing cell culture, designated GS4.3, was obtained from Dr. Christoph Seeger of the Institute for Cancer Research, Fox Chase Cancer Center, Philadelphia, Pa.
GS4.3 cells were maintained at 37° C., 5% CO2, in DMEM (Gibco 11965-092) supplemented with L-glutamine 200 mM (100×) (Gibco25030-081), non-essential amino acids (NEAA)(Biowhittaker 13-114E), heat-inactivated (HI) Fetal Bovine Serum(FBS)(Hyclone SH3007.03) and 750 μg/ml geneticin (G418)(Gibco 10131-035). Cells were sub-divided 1:3 or 4 every 2-3 days.
24 hours prior to the assay, GS4.3 cells were collected, counted, and plated in 96-well plates (Costar 3585) at 7500 cells/well in 100 μl standard maintenance medium (above) and incubated in the conditions above. To initiate the assay, culture medium was removed, cells were washed once with PBS (Gibco 10010-023) and 90 μl Assay Medium (DMEM, L-glutamine, NEAA, 10% HI FBS, no G418) was added. Inhibitors were made as a 10× stock in Assay Medium, (3-fold dilutions from 10 μM to […] final concentration, final DMSO concentration 1%), 10 μl were added to duplicate wells, plates were rocked to mix, and incubated as above for 72 h.
An NPTII ELISA kit was obtained from AGDIA, Inc. (Compound direct ELISA test system for Neomycin Phosphotransferase II, PSP 73000/4800). Manufacturer's instructions were followed, with some modifications. 10×PEB-1 lysis buffer was made up to include 500 μM PMSF (Sigma P7626, 50 mM stock in isopropanol). After 72 h incubation, cells were washed once with PBS and 150 μl PEB-1 with PMSF was added per well. Plates were agitated vigorously for 15 minutes, room temperature, then frozen at −70° C. Plates were thawed, lysates were mixed thoroughly, and 100 μl were applied to an NPTII Elisa plate. A standard curve was made. Lysate from DMSO-treated control cells was pooled, serially diluted with PEB-1 with PMSF, and applied to duplicate wells of the ELISA plate, in a range of initial lysate amount of 150u1-2.5 ul. In addition, 100 μl buffer alone was applied in duplicate as a blank. Plates were sealed and gently agitated at room temperature for 2 h. Following capture incubation, the plates were washed 5×300 μl with PBS-T (0.5% Tween-20, PBS-T was supplied in the ELISA kit). For detection, a 1× dilution of enzyme conjugate diluent MRS-2 (5×) was made in PBS-T, into which 1:100 dilutions of enzyme conjugates A and B were added, as per instructions. Plates were resealed, and incubated with agitation, covered, room temperature, for 2 h. The washing was then repeated and 100 μl of room temperature TMB substrate was added. After approximately 30 minutes incubation (room temperature, agitation, covered), the reaction was stopped with 50 μl 3M sulfuric acid. Plates were read at 450 nm on a Molecular Devices Versamax plate reader.
Inhibitor effect was expressed as a percentage of DMSO-treated control signal, and inhibition curves were calculated using a 4-parameter equation: y=A+((B−A)/(1+((C/x)^D))), where C is half-maximal activity or EC50.

[2] = target: T1, NS3-NS4A protease (Hepatitis C virus genotype 1a, UniProt P27958); experiment: NS3-NS4A protease assay (NS3 inhibition assay, RETS1 substrate), Section B; type: biochemical
T1 construct: Recombinant E. coli or Baculovirus full-length NS3 was diluted to 3.33 μM with assay buffer; made in house; host or cells: E. coli or baculovirus (BV) system
T1 sequence (P27958 1027-1657): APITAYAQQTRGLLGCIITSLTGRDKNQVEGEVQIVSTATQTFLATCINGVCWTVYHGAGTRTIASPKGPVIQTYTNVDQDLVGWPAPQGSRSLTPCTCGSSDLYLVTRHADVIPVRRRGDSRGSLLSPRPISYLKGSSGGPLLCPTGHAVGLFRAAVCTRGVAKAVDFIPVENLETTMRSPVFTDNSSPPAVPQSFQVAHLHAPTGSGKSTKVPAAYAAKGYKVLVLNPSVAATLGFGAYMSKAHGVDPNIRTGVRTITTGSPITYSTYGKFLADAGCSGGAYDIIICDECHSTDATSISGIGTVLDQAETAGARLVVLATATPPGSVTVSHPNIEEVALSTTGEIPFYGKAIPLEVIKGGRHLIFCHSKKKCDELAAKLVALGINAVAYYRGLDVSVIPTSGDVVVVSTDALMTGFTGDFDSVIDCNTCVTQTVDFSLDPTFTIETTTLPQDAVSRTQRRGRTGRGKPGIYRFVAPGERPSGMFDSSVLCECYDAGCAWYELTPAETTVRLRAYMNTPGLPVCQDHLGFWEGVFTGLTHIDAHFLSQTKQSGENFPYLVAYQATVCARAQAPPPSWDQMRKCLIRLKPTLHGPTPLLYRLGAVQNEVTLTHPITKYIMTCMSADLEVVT
Summary of the method: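 Full-length NS3 (E. coli or baculovirus) precomplexed with excess NS4A-2 peptide, run at 2 nM (E. coli) or 3 nM (BV) NS3; compounds pre-incubated 10 min at room temperature before RETS1 substrate. Fluorescence (ex 335/em 495 nm) read kinetically 30 min; IC50 from four-parameter fit, converted to Ki via Ki=IC50/(1+[S]/Km).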

## O=C(Cc1ccccc1)N[C@H]1CCCCC/C=C\[C@@H]2C[C@@]2(C(=O)NS(=O)(=O)C2CC2)NC(=O)[C@@H]2C[C@@H](OC(=O)N3Cc4cccc(F)c4C3)CN2C1=O [AR00340188, (1S,4R,6S,14S,18R)-4-Fluoro-1,3-dihydro-isoindole-2-carboxylic acid 4-cyclopropanesulfonylaminocarbonyl-2,15-dioxo-14-phenylacetylamino-3,16-diaza-tricyclo[14.3.0.0^4,6]nonadec-7-en-18-yl ester]
[1]; GS4.3 cells, 72 h incubation
  EC50: < 1000 nM
[2]; read-out: NS3-NS4A IC50
  IC50: < 100 nM

## CC(C)[C@@H](NC(=O)c1cccnc1)C(=O)N[C@H]1CCCCC/C=C\[C@@H]2C[C@@]2(C(=O)O)NC(=O)[C@@H]2C[C@@H](OC(=O)N3CCc4ccccc4C3)CN2C1=O [AR00304073, (1S,4R,6S,14S,18R)-18-(3,4-Dihydro-1H-isoquinoline-2-carbonyloxy)-14-{3-methyl-2-[(pyridine-3-carbonyl)-amino]-butyrylamino}-2,15-dioxo-3,16-diaza-tricyclo[14.3.0.0^4,6]nonadec-7-ene-4-carboxylic acid]
[1]; 72 h
  EC50: < 10000 nM
[2]
  IC50: < 1000 nM

## COCC1c2ccc(OC)cc2CCN1C(=O)O[C@@H]1C[C@H]2C(=O)N[C@]3(C(=O)O)C[C@H]3/C=C\CCCCC[C@H](NC(=O)OC(C)(C)C)C(=O)N2C1 (stereo partly drawn) [AR00333842, (1S,4R,6S,14S,18R)-14-tert-Butoxycarbonylamino-18-(6-methoxy-1-methoxymethyl-3,4-dihydro-1H-isoquinoline-2-carbonyloxy)-2,15-dioxo-3,16-diaza-tricyclo[14.3.0.0^4,6]nonadec-7-ene-4-carboxylic acid]
[1]; GS4.3 cells, 72 h incubation
  EC50: < 10000 nM
[2]; read-out: NS3-NS4A IC50
  IC50: < 1000 nM

## CC(C)Nc1nc(-c2ccc3c(c2)CN(C(=O)O[C@@H]2C[C@H]4C(=O)N[C@]5(C(=O)NS(=O)(=O)C6CC6)C[C@H]5/C=C\CCCCC[C@H](NC(=O)OC(C)(C)C)C(=O)N4C2)C3)cs1 [AR00365019, (1S,4R,6S,14S,18R)-5-(2-Isopropylamino-thiazol-4-yl)-1,3-dihydro-isoindole-2-carboxylic acid 14-tert-butoxycarbonylamino-4-cyclopropanesulfonylaminocarbonyl-2,15-dioxo-3,16-diaza-tricyclo[14.3.0.0^4,6]nonadec-7-en-18-yl ester]
[1]; GS4.3 cells, 72 h incubation
  EC50: < 100 nM
[2]; read-out: NS3-NS4A IC50
  IC50: < 100 nM

## O=C(N[C@H]1CCCCC/C=C\[C@@H]2C[C@@]2(C(=O)NS(=O)(=O)C2CC2)NC(=O)[C@@H]2C[C@@H](OC(=O)N3CCc4ccccc4C3)CN2C1=O)OCCF [AR00304161, (1S,4R,6S,14S,18R)-3,4-Dihydro-1H-isoquinoline-2-carboxylic acid 4-cyclopropanesulfonylaminocarbonyl-14-(2-fluoro-ethoxycarbonylamino)-2,15-dioxo-3,16-diaza-tricyclo[14.3.0.0^4,6]nonadec-7-en-18-yl ester]
[1]; GS4.3 cells, 72 h incubation
  EC50: < 100 nM
[2]; read-out: NS3-NS4A IC50
  IC50: < 100 nM

## CC(C)(C)OC(=O)N[C@H]1CCCCC/C=C\[C@@H]2C[C@@]2(C(=O)NS(=O)(=O)C2CC2)NC(=O)[C@@H]2C[C@@H](NC(=O)N3Cc4ccccc4C3)CN2C1=O [AR00304008, (1S,4R,6S,14S,18R)-{4-Cyclopropanesulfonylaminocarbonyl-18-[(1,3-dihydro-isoindole-2-carbonyl)-amino]-2,15-dioxo-3,16-diaza-tricyclo[14.3.0.0^4,6]nonadec-7-en-14-yl}-carbamic acid tert-butyl ester]
[1]; GS4.3 cells, 72 h incubation
  EC50: < 100 nM
[2]; read-out: NS3-NS4A IC50
  IC50: < 100 nM

## CC(C)(C)OC(=O)N[C@H]1CCCCC/C=C\[C@@H]2C[C@@]2(C(=O)NS(=O)(=O)C2CC2)NC(=O)[C@@H]2C[C@@H](OC(=O)N3Cc4ccc(Cl)cc4C3)CN2C1=O [AR00320119, (1S,4R,6S,14S,18R)-5-Chloro-1,3-dihydro-isoindole-2-carboxylic acid 14-tert-butoxycarbonylamino-4-cyclopropanesulfonylaminocarbonyl-2,15-dioxo-3,16-diaza-tricyclo[14.3.0.0^4,6]nonadec-7-en-18-yl ester]
[1]; GS4.3 cells, 72 h incubation
  EC50: < 100 nM
[2]; read-out: NS3-NS4A IC50
  IC50: < 100 nM

## O=C(N[C@H]1CCCCC/C=C\[C@@H]2C[C@@]2(C(=O)O)NC(=O)[C@@H]2C[C@@H](OC(=O)N3Cc4ccc(Cl)cc4C3)CN2C1=O)O[C@@H]1CCOC1 [AR00320448, (1S,4R,6S,14S,18R)-18-(5-Chloro-1,3-dihydro-isoindole-2-carbonyloxy)-2,15-dioxo-14-(tetrahydro-furan-3R-yloxycarbonylamino)-3,16-diaza-tricyclo[14.3.0.0^4,6]nonadec-7-ene-4-carboxylic acid]
[1]; GS4.3 cells, 72 h incubation
  EC50: < 10000 nM
[2]; read-out: NS3-NS4A IC50
  IC50: < 1000 nM

## O=C(N[C@H]1CCCCC/C=C\[C@@H]2C[C@@]2(C(=O)NS(=O)(=O)C2CC2)NC(=O)[C@@H]2C[C@@H](OC(=O)N3Cc4ccccc4C3)CN2C1=O)O[C@@H]1CCOC1 [AR00320079, (1S,4R,6S,14S,18R)-1,3-Dihydro-isoindole-2-carboxylic acid 4-cyclopropanesulfonylaminocarbonyl-2,15-dioxo-14-(tetrahydro-furan-3-yloxycarbonylamino)-3,16-diaza-tricyclo[14.3.0.0^4,6]nonadec-7-en-18-yl ester]
[1]; GS4.3 cells, 72 h incubation
  EC50: < 100 nM
[2]; read-out: NS3-NS4A IC50
  IC50: < 100 nM

## O=C(N[C@H]1CCCCC/C=C\[C@@H]2C[C@@]2(C(=O)O)NC(=O)[C@@H]2C[C@@H](OC(=O)N3CCc4c(F)cccc4C3)CN2C1=O)OC1CCCC1 [AR00304074, (1S,4R,6S,14S,18R)-14-Cyclopentyloxycarbonylamino-18-(5-fluoro-3,4-dihydro-1H-isoquinoline-2-carbonyloxy)-2,15-dioxo-3,16-diaza-tricyclo[14.3.0.0^4,6]nonadec-7-ene-4-carboxylic acid]
[1]; GS4.3 cells, 72 h incubation
  EC50: < 10000 nM
[2]; read-out: NS3-NS4A IC50
  IC50: < 1000 nM

## O=C(NC1CCCC1)N[C@H]1CCCCC/C=C\[C@@H]2C[C@@]2(C(=O)NS(=O)(=O)C2CC2)NC(=O)[C@@H]2C[C@@H](OC(=O)N3CCc4cccc(C(F)(F)F)c4C3)CN2C1=O [AR00304081, (1S,4R,6S,14S,18R)-8-Trifluoromethyl-3,4-dihydro-1H-isoquinoline-2-carboxylic acid 14-(3-cyclopentyl-ureido)-4-cyclopropanesulfonylaminocarbonyl-2,15-dioxo-3,16-diaza-tricyclo[14.3.0.0^4,6]nonadec-7-en-18-yl ester]
[1]; GS4.3 cells, 72 h incubation
  EC50: < 1000 nM
[2]; read-out: NS3-NS4A IC50
  IC50: < 100 nM

## COCC1c2cccc(F)c2CCN1C(=O)O[C@@H]1CC2C(=O)N[C@]3(C(=O)NS(=O)(=O)C4CC4)C[C@H]3/C=C\CCCCC[C@H](NC(=O)OC(C)(C)C)C(=O)N2C1 (stereo partly drawn) [AR00365193, (1S,4R,6S,14S,18R)-5-Fluoro-1-methoxymethyl-3,4-dihydro-1H-isoquinoline-2-carboxylic acid 14-tert-butoxycarbonylamino-4-cyclopropanesulfonylaminocarbonyl-2,15-dioxo-3,16-diaza-tricyclo[14.3.0.0^4,6]nonadec-7-en-18-yl ester]
[1]; GS4.3 cells, 72 h incubation
  EC50: < 100 nM
[2]; read-out: NS3-NS4A IC50
  IC50: < 100 nM

## O=C(NC1CCCC1)N[C@H]1CCCCC/C=C\[C@@H]2C[C@@]2(C(=O)O)NC(=O)[C@@H]2C[C@@H](OC(=O)N3CCc4cccc(C(F)(F)F)c4C3)CN2C1=O [AR00304078, (1S,4R,6S,14S,18R)-14-(3-Cyclopentyl-ureido)-2,15-dioxo-18-(8-trifluoromethyl-3,4-dihydro-1H-isoquinoline-2-carbonyloxy)-3,16-diaza-tricyclo[14.3.0.0^4,6]nonadec-7-ene-4-carboxylic acid]
[1]; GS4.3 cells, 72 h incubation
  EC50: < 1000 nM
[2]; read-out: NS3-NS4A IC50
  IC50: < 100 nM
